Format in all cases: in vivo
Assay [1] has as its system Blumeria graminis f.sp. tritici (ERYSGT). In words: Foliar fungicidal test on wheat, 6 hour protectant, Blumeria graminis f.sp. tritici. As to conditions: 100 ppm foliar spray on wheat; inoculated 6 hours after chemical application; banded assessment. Here is the method:
(§1) This Example illustrates the fungicidal properties of the compounds of formula (I). The compounds were tested against a variety of foliar fungal diseases of plants. The technique employed was as follows. Plants were grown on an artificial, cellulose based growing medium. The test compounds were individually diluted in reverse osmosis water to a final concentration of 100 ppm in water (that is, 1 mg of compound in a final volume of 10 ml) immediately before use. TWEEN 20 (at a final concentration of 0.05% by volume) was added with the water to improve retention of the spray deposit. TWEEN is a registered trade mark. The compounds were applied to the foliage of the test plants by spraying the plant to maximum droplet retention. […] After chemical application and inoculation, the plants were incubated under high humidity conditions (except those inoculated with Blumeria graminis f.sp. tritici) and then put into an appropriate environment to allow infection to proceed until the disease was ready for assessment. […] However, each individual disease was assessed after the same time period for all compounds. […] The disease level present (the percentage leaf area covered by actively sporulating disease) was assessed visually. For each treatment, the assessed values for all its replicates were meaned to provide mean disease values. Untreated control plants were assessed in the same manner. […]

The test system of assay [2] is Stagonospora Nodorum (LEPTNO). In words: Foliar fungicidal test on wheat, 1 day protectant, Stagonospora Nodorum. As to conditions: 100 ppm foliar spray on wheat; inoculated one day after chemical application; banded assessment. Here is the method: as §1
Assay [3] concerns Puccinia triticina (PUCCRT). In words: Foliar fungicidal test on wheat, 1 day protectant, Puccinia triticina. The following applies: 100 ppm foliar spray on wheat; inoculated one day after chemical application; banded assessment. How it is done: as §1

As to `CO[C@@H]1CO[C@H]2[C@@H](O)[C@H](c3c[nH]c(=O)[nH]c3=O)O[C@@H]2[C@@H]1NC(N)=O` (stereo in doubt) [(II), Malayamycin A], in assay [1], the “PRCO (Percentage Disease Reduction from Control) ERYSGT 6 hour Protectant” value came out at 100. In addition, the “PRCO (Percentage Disease Reduction from Control) LEPTNO 1 day Protectant” value in assay [2] was found to be 100. In addition, the “PRCO (Percentage Disease Reduction from Control) PUCCRT 1 day Protectant” value in assay [3] is on record as 100.
Turning to `NC(=O)N[C@H]1[C@H]2O[C@@H](c3c[nH]c(=O)[nH]c3=O)[C@H](O)[C@@H]2OC[C@H]1O` (stereo in doubt) [(III), Desmethylmalayamycin A], the “PRCO (Percentage Disease Reduction from Control) ERYSGT 6 hour Protectant” value in assay [1] is listed as 0. For the same molecule, in assay [2], the “PRCO (Percentage Disease Reduction from Control) LEPTNO 1 day Protectant” value was 99. The “PRCO (Percentage Disease Reduction from Control) PUCCRT 1 day Protectant” value in assay [3] was 100.

(Values after patent US7026270B2, “Biocidal compounds and their preparation” (Syngenta Crop Protection, Inc., priority 2002, dated 2006).)
